Laboratory results published in patent publication US10584127B2, “3,3-difluoropiperidine carbamate heterocyclic compounds as NR2B NMDA receptor antagonists” (Rugen Holdings (Cayman) Limited, priority 2015, dated 2020).

Columns and labels:
[1] = tested on: immobility in forced swim test; assay: Forced Swim Test (FST) in mice; format: in vivo
Text: (§1) The forced swim test (FST) also known at the behavioural despair test was used to evaluate antidepressant activity (Porsolt et al., 1977 Arch. Int. Pharmacodyn. 229: 327-336, Porsolt et al., 1977, Eur. J. Pharmacol. 47:379-391). Mice or rats that are forced to swim in a situation from which they cannot escape, rapidly become immobile. Drugs with antidepressant activity, such as imipramine, reduce the amount of time spent in the immobile state. Therefore, the amount of immobility time during a test conducted after drug administration represents a useful indicator of antidepressant activity (Lucki et al 2001 Psychopharmacology 155:315-322; Porsolt et al., 1977, Nature 266:730-732).
(§2) Test compound E1-8.2 was administered as the free base.
Testing for antidepressant activity was conducted in rats or mice according to the general procedures below.
Mice were evaluated in a single swimming test session of 6 minutes. Mice were placed in a transparent plastic cylinder 24 cm high with a diameter of 13 cm containing 10 cm of water with ambient temperature control generally from 22±2° C. Mice were placed in the water for 6 minutes and the duration of immobility during the last 4 minutes was measured.
Animals were observed by a blinded observer. […] The amount of time each animal spent in the immobile state (and the latency to the first bout of immobility) was recorded and used for statistical analysis of compound effect. Group differences were evaluated by student's t-test (reference substance) or one-way ANOVA followed by post-hoc Dunnett's test (test substances). […]
Male mice (strain NLMN) weighing 25-35 g were used for testing. […] The mice were videotaped for 6 minutes, and the last 4 minutes of video were analyzed by a blinded observer off-line. […] The amount of time each animal spent in the immobile state was recorded and used for statistical analysis of compound effect. Group differences were evaluated by student's t-test or one-way ANOVA followed by post-hoc Dunnett's test. […]

[2] = tested on: immobility in forced swim test; assay: Forced Swim Test (FST) in rats; format: in vivo
Text: as §1
Test compound E1-8.2 was administered as the free base. […]
Male Wistar rats weighing 197-251 g were used for the rat test. Rats were evaluated according to a two-session procedure with a swimming session of 15 minutes on the first day of the experiment (Session 1) followed 24 hours later by a 5-minute swimming test (Session 2). […] Rats were placed in the water 24 h later for 5 minutes (Session 2) and the duration of immobility was measured.
Animals were observed by a blinded observer. […] The amount of time each animal spent in the immobile state (and the latency to the first bout of immobility) was recorded and used for statistical analysis of compound effect. […]

[3] = target: cloned human NR1/NR2A (Homo sapiens (Human), UniProt Q12879); assay: NR2A antagonist activity, Fluo-4 calcium influx in HEK293 cells; format: cell-based; conditions: glutamate 100 μM, glycine 50 μM
[4] = tested on: NMDA receptor (all subtypes), native rat brain receptors; assay: [3H] MK-801 radioligand binding assay, rat brain membranes; conditions: 2 nM [3H] MK-801, rat brain membranes
Procedure: This example describes NMDA receptor binding assays using two different radioligands, [^3H] […] An established binding assay using the non-selective NMDA receptor ligand [^3H] […] The binding assay method using the NR2B selective receptor ligand [^3H] […] This assay serves as a selective measure of NR2B receptor binding activity in native rat brain receptors. Briefly, the brains of Male Wistar rats were homogenized (Polytron) before centrifugation at 40,000×g for 15 minutes at 4° C. After 2 washes, the final pellet was homogenized and stored at −80° C. The protein concentration was determined by Bradford assay.
Test compounds were solubilized at 10 mM in DMSO. Then the dilutions were performed with a constant solvent concentration (1% DMSO) in the assay.
After incubation for 4.5 h at room temperature, the assays were filtered on GF/B filters pretreated with 0.3% (v/v) PEI with a Brandel system for [^3H] […] The experiment was performed in duplicate (n=2).

[5] = target: CYP2D6 (Homo sapiens (Human), UniProt P10635); assay: CYP P450 enzyme inhibition, pooled human liver microsome; format: in vitro ADME; conditions: HLM, dextromethorphan 5 μM
[6] = tested on: electroconvulsive threshold (tonic convulsions); assay: Electroconvulsive Threshold Test (ECT); format: in vivo, rats; conditions: rats
Procedure: Rats were administered ECS (rectangular current: 0.6 ms pulse width, 1.5 s duration, 200 Hz) via earclip electrodes connected to a constant current shock generator (Ugo Basile: type 7801). Test compounds were administered by oral gavage (p.o.) 1 hour before the test at a dose volume of 5 mL/kg.
Treatment groups of 20 rats were exposed to ECS as follows: The first animal was exposed to 30 mA of ECS. […] (increases of 5 mA) until the first tonic convulsion was observed. Once the first tonic convulsion was observed, the intensity of ECS was decreased by 2 mA for the next animal and then decreased or increased by 2 mA from animal to animal depending on whether the previous animal convulsed or not. If the first animal did convulse (tonic convulsions) within 5 seconds, animal n°2 is exposed to 25 mA, etc . . . (decreases of 5 mA) until the absence of tonic convulsions was observed. At this point, the intensity of ECS was increased by 2 mA for the next animal and then decreased or increased by 2 mA from animal to animal depending on whether the previous animal convulsed or not. The minimum current intensity applied is 5 mA and the maximum 95 mA. The first 5 animals serve to approach threshold current and were not included in the analysis. The results are presented as the mean current intensity administered to the final 15 animals of a group. The test was performed blind. A positive percent change indicates an anticonvulsant effect. A negative percent change indicates a proconvulsant effect. The test substance was evaluated at 4 doses, typically using 0.5% dimethylsulfoxide, 4% hydroxypropyl-b-cyclodextrin water as a vehicle, and administered p.o. 60 minutes before ECS, and compared with a vehicle control group. Diazepam (16 mg/kg p.o.), administered under the same experimental conditions, was used as reference substance. The experiment included 6 groups. Data with the test substance was analyzed by comparing treated groups with vehicle control using one-way ANOVA followed by Dunnett's t tests.

[7] = tested on: pentylenetetrazole-induced convulsions; assay: Pentylenetetrazole (PTZ) Seizure Test; format: in vivo, rats; conditions: 10 mg/kg p.o., mesylate salt, PTZ 100 mg/kg s.c.
Procedure: Rats, placed in individual macrolon cages (25×19×13 cm), were injected with pentylenetetrazole (PTZ) (100 mg/kg s.c.). The occurrence and latency of clonic and tonic convulsions and death were noted over a 30 minute period. 15 rats were studied per group. The test was performed blind.
as §2
Compounds were evaluated typically using 0.5% dimethylsulfoxide, 4% hydroxypropyl-b-cyclodextrin water as a vehicle at 1 or more doses (e.g., 1, 3 and 10 mg/kg), administered p.o. 30 minutes before PTZ, and compared with a vehicle control group. Diazepam (16 mg/kg p.o.), administered 60 minutes before PTZ, was used as reference substance. The experiment was performed over 2 separate sub-experiments with N=7 to 8 animals per group and per sub-experiment. Quantitative data (latencies) with the test substance was analyzed by comparing treated groups with vehicle control using Kruskal-Wallis test followed by Mann-Whitney U test. Quantitative data with the reference substance was analyzed using Mann-Whitney U test. Quantal data (frequencies) was analyzed by comparing treated groups with vehicle control using Fisher's Exact Probability tests (*=p<0.05; **=p<0.01; ***=p<0.001).

Sequence of CYP2D6 (P10635 whole entry): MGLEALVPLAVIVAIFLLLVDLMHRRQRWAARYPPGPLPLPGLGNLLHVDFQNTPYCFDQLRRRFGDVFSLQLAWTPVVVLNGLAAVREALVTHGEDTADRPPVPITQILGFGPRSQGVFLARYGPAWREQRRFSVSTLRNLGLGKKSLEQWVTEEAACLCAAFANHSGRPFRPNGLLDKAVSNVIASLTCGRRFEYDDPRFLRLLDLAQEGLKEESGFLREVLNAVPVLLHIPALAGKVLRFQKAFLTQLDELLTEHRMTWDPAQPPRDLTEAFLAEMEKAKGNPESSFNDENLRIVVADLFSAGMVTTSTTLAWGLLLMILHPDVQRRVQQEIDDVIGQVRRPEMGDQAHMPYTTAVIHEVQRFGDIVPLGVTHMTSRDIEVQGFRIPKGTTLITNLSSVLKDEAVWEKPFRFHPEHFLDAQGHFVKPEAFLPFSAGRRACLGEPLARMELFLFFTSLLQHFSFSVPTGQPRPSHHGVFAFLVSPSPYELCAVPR
Sequence of cloned human NR1/NR2A (Q12879 23-1464, other chains not shown): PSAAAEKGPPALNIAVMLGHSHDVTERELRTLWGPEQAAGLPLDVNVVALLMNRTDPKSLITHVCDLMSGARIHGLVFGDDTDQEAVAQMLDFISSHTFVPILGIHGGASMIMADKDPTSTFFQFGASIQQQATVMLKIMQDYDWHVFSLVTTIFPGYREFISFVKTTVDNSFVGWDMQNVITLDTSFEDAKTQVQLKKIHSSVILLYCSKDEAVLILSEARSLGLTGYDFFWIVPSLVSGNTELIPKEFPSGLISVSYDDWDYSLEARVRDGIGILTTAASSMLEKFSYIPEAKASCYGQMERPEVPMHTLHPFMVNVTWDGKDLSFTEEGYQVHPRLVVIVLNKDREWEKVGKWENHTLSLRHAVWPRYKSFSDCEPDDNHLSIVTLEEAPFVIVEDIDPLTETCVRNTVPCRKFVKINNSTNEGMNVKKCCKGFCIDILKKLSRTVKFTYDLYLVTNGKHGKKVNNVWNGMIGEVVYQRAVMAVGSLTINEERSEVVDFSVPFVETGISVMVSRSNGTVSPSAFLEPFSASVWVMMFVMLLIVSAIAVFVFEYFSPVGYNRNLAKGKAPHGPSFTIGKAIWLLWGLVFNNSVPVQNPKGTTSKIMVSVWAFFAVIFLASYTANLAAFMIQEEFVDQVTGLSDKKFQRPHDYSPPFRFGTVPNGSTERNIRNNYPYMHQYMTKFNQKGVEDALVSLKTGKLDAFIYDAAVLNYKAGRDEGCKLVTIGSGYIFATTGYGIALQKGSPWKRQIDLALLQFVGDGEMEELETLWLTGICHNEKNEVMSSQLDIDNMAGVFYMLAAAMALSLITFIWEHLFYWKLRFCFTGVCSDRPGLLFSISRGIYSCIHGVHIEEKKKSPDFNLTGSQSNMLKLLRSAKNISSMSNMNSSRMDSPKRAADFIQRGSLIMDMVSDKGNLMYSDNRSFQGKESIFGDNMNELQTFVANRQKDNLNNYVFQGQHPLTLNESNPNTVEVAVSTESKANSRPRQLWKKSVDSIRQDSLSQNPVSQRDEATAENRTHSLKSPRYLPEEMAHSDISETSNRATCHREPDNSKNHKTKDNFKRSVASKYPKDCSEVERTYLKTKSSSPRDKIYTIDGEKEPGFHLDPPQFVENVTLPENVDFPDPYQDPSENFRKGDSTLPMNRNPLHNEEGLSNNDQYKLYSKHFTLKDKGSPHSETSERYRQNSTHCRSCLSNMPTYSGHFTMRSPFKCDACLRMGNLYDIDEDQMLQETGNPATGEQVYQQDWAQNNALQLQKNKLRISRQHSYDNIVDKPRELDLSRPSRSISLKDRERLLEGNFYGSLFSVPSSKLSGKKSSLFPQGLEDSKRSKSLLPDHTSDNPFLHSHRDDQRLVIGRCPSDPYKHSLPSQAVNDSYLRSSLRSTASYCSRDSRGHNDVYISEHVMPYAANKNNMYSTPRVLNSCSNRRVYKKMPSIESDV

| partial effect on [3H] MK-801 binding [4] [%] | CYP2D6 @ 10 μM (%) [5] [%] | Compound | also measured |
| --- | --- | --- | --- |
| – | – | CN(C)CCCN1c2ccccc2CCc2ccccc21 [imipramine] | antidepressant activity (immobility time) ([1]; 32 mpk i.p. once 30 min before the test): expected antidepressant activity; antidepressant activity (immobility time) ([1]; 64 mpk p.o. once 60 min before the test): expected antidepressant activity; antidepressant activity (immobility time) ([1]; 128 mpk p.o. once 60 minutes before the test on Day 7): expected antidepressant activity; antidepressant activity (immobility time) ([2]; 32 mpk i.p. 3 times: 24 h, 4 h and 30 min before the test (Session 2)): expected antidepressant activity; antidepressant activity (immobility time) ([2]; 64 mpk p.o. 3 times: 24 h, 4 h and 60 min before the test (Session 2)): expected antidepressant activity |
| 33 | 83 | Cc1ccc(COC(=O)N2CC[C@H](CNc3ncc4cn[nH]c4n3)C(F)(F)C2)cc1 [Compound E1-8.2, (+)-R-4-methylbenzyl-4-((1H-pyrazolo[3,4-d]pyrimidin-6-ylamino)methyl)-3,3-difluoropiperidine-1-carboxylate] | IC50 [3]: > 10 µM; activity on electroconvulsive threshold ([6]; 0.5 and 2 mpk p.o., free base): modest proconvulsant activity; activity on electroconvulsive threshold ([6]; 10 and 20 mpk p.o., free base): anticonvulsant activity |
| – | 18 | Cc1ccc(COC(=O)N2CC[C@H](CNc3cncc4nncn34)C(F)(F)C2)cc1 [Compound E1-2.2, R-4-methylbenzyl 4-(([1,2,4]triazolo[4,3-a]pyrazin-5-ylamino)methyl)-3,3-difluoropiperidine-1-carboxylate] | – |
| 36 | – | Cc1ccc(COC(=O)N2CC[C@@H](CNc3nccn4cnnc34)C(F)(F)C2)cc1 [Compound E2-1.2, (−)-S-4-methylbenzyl 4-(([1,2,4]triazolo[4,3-a]pyrazin-8-ylamino)methyl)-3,3-difluoropiperidine-1-carboxylate] | – |
| 32 | 19 | O=C(OCc1ccc(F)cc1)N1CC[C@H](CNc2nccn3cnnc23)C(F)(F)C1 [Compound E1-1.4, R-4-fluorobenzyl 4-(([1,2,4]triazolo[4,3-a]pyrazin-8-ylamino)methyl)-3,3-difluoropiperidine-1-carboxylate] | – |
| 49 | 97 | Cc1ccc(COC(=O)N2CC[C@H](CNc3cnccn3)C(F)(F)C2)cc1 [Compound E1-21.2, R-4-methylbenzyl 3,3-difluoro-4-((pyrazin-2-ylamino)methyl)piperidine-1-carboxylate] | – |
| – | 93 | FC(F)(F)c1ccc(C(F)(F)CN2CCC(Nc3ncnc4[nH]ncc34)CC2)cc1 [LX-1, reference compound] | – |
| – | – | Cn1c(=O)c2[nH]cnc2n(C)c1=O [theophylline, reference compound] | activity on electroconvulsive threshold ([6]; 128 mpk p.o.): expected proconvulsant activity |
| 48 | – | CCc1ccc(COC(=O)N2CC[C@H](CNc3nccn4cnnc34)C(F)(F)C2)cc1 [Compound E1-1.5, R-4-ethylbenzyl 4-(([1,2,4]triazolo[4,3-a]pyrazin-8-ylamino)methyl)-3,3-difluoropiperidine-1-carboxylate] | – |
| 41 | 37 | O=C(OCc1ccc(Cl)cc1)N1CC[C@H](CNc2nccn3cnnc23)C(F)(F)C1 [Compound E1-1.3, R-4-chlorobenzyl 4-(([1,2,4]triazolo[4,3-a]pyrazin-8-ylamino)methyl)-3,3-difluoropiperidine-1-carboxylate] | – |
| 34 | 14 | Cc1ccc(COC(=O)N2CC[C@H](CNc3nc4ccccn4n3)C(F)(F)C2)cc1 [Compound E1-9.2, (+)-R-4-methylbenzyl 4-(([1,2,4]triazolo[1,5-α]pyridin-2-ylamino)methyl)-3,3-difluoropiperidine-1-carboxylate] | IC50 [3]: > 10 µM |

| Compound | partial effect on [3H] MK-801 binding [4] [%] | CYP2D6 @ 10 μM (%) [5] [%] | also measured |
| --- | --- | --- | --- |
| Cc1ccc(COC(=O)N2CC[C@H](CNc3cnc(C)cn3)C(F)(F)C2)cc1 [Compound E1-21.26, R-4-methylbenzyl 3,3-difluoro-4-((5-methylpyrazin-2-ylamino)-methyl)piperidine-1-carboxylate] | 41 | 32 | activity on electroconvulsive threshold ([6]; 3 and 10 mpk p.o., mesylate salt): anticonvulsant activity; latency to death, change vs vehicle controls [7]: +31%; number of deaths, change vs vehicle controls [7]: −82% |
